For assay [1], the system named is neutrophils. As to the kind of experiment: In vitro neutrophil migration to IgA-coated beads. Type of assay: cell-based, human. Conditions: fluorimeter; for block of IgA-induced neutrophil migration (in words): oxidated or small cyclic peptides, 3 independent experiments in triplicates, Supporting Information Fig. 2. Here is the method:
Figure 3 Peptide mimetics block IgA‐induced migration in vitro. Percentage of migration of fluorescently labelled neutrophils to IgA‐coated beads, either in the presence or absence of peptide mimetics. The number of migrated neutrophils was determined with a fluorimeter. Neutrophil migration to IgA was normalized to 100% (dotted line). Neutrophils or beads were pre‐incubated with (A) linear or (B) cyclic peptides mimicking FcαRI‐sequences (white bars) or IgA‐sequences (black bars). Data are representative of three independent experiments, performed in triplicates. Mean ± SD is shown. Statistical analysis: ANOVA *p< 0.05, **p < 0.01.
(§1) In vitro migration assays were performed as previously described 4. All experiments were performed in triplo. Migration towards IL‐8 (30 ng/mL) was measured after pre‐incubating neutrophils with peptides (1 μg/mL) or anti‐IL‐8 blocking antibody (10 μg/mL, Pharmingen).
Supporting Information Figure 2 […]
Percentage of migration of fluorescently labelled neutrophil to IgA-coated beads, either in the presence or absence of peptide mimetics. The number of migrated neutrophils was determined with a fluorimeter. Neutrophil migration to IgA was normalized to 100% (dotted line). Neutrophils or beads were pre-incubated with (A) oxidated or (B) small cyclic peptides mimicking FcαRI-sequences (white bars) or IgA-sequences (black bars). Data are representative of 3 independent experiments, performed in triplicates. Mean ± SD of one representative experiment is shown. Statistical analysis: ANOVA

The subject of assay [2] is neutrophils. The assay can be described thus: Ex vivo human skin migration assay (IgA-coated beads injected in the dermis). It counts as cell-based. Conditions: full thickness human skin grafts; peptide 1 μg/mL, pre-incubation 20 min, 4°C; incubated overnight (24 h) at 37°C; fluorescence microscopy; three independent experiments in duplicate; Fig. 4. From the text:
To mimic blocking of neutrophil migration toward aberrant IgA‐antigen complexes in the skin, an ex vivo migration assay was established. […] No influx toward BSA‐coated beads was observed, whereas massive influx of neutrophils toward the injected IgA‐coated beads was observed (Fig 4A).
Figure 4 Peptide mimetics block neutrophil migration and penetrate the dermis in an ex vivo human skin model. Migration of green‐fluorescent neutrophils to BSA‐ (left panel) or IgA‐ (right panel) coated beads (indicated with circles) in the dermis of ex vivo skin explants (A). Migration of green‐fluorescent neutrophils to IgA‐coated beads (indicated with circles) after pre‐incubation with non‐blocking peptide FcαRI9‐ox (B), linear peptides (C) or cyclic CLIPS‐peptides (D). Images are representative of three independent experiments, performed in duplicate. Scale bar = 250 μm. Images are 10× magnified.
For ex vivo human skin migration assays, full thickness mammary skin grafts (epidermis and dermis) were placed in an ex vivo tissue incubation chamber with the dermis face up 6, 49. IgA‐coated beads were pre‐incubated with FcαRI‐peptides (1 μg/mL, 20 min, 4°C) and injected intracutaneously via the dermis. BSA‐coated beads were used for control. Next, PKH‐67 labeled neutrophils (4 × 10^6 cells/well) were added on the dermis. Alternatively, IgA‐coated beads were injected intracutaneously and PKH‐67 labeled neutrophils (4 × 10^6 cells/well) that were pre‐incubated with IgA‐peptides (1 μg/mL, 20 min, 4°C) were added onto the dermis. Cells were supplemented with IFN‐γ to prevent early apoptosis (300 units/mL; Boehringer Ingelheim, Ingelheim am Rhein, Germany). Skin was incubated overnight at 37°C, after which biopsies of the injected skin were taken and snap frozen. Cryosections of 6 μm were analysed with a Nikon eclipse e800 (Nikon instruments Europe BV, Amsterdam, The Netherlands).

For assay [3], the system named is neutrophils. As to the kind of experiment: IL-8 induced chemotaxis of neutrophils. Type of assay: cell-based, human. The settings on record: IL-8 30 ng/mL; neutrophils pre-incubated with peptides 1 μg/mL; fluorimeter; three times in triplo; Supporting Information Fig. 3. Here is the method: as §1
Supporting Information Figure 3 […]
medium IL-8anti-IL-8IgA1-linFcĮRI1-linFcĮRI9-ox
Number of fluorescently labelled neutrophils which migrated to IL-8 in a chemotaxis chamber, either in the presence or absence of peptide mimetics. The number of migrated neutrophils was determined with a fluorimeter. Neutrophil migration to IL-8 is indicated with a dotted line.
Medium and blocking IL-8 antibody (anti-IL-8) were used as controls. Experiments were performed three times in triplo. Mean ± SD of one representative experiments in triplo is shown.
Statistical analysis: ANOVA

The subject of assay [4] is IgA binding to FcαRI (on neutrophils). As to the kind of experiment: Ligand binding assay: neutrophil binding to IgA-coated plates. It counts as cell-based. The settings on record: peptide 1 μg/mL, pre-incubation 20 min, 4°C, calcein labeled human neutrophils 2.5 × 10^5 cells/well, 37°C, fluorimeter, three independent experiments in triplicates, Fig. 1. Here is the method:
Figure 1 Peptide mimetics inhibit IgA binding to FcαRI. Percentage of ligand binding between IgA and FcαRI (on neutrophils), either in the presence or absence of peptide mimetics. Fluorescently labelled human neutrophils, isolated from blood, were added to IgA‐coated plates, and the number of neutrophils attaching to the plate was measured with a fluorimeter. IgA binding to FcαRI was normalized to 100% (indicated with dotted line). Neutrophils or plates were pre‐incubated with either linear peptides (A) or cyclic CLIPS‐peptides (B) mimicking FcαRI‐sequences (white bars) or IgA‐sequences (black bars). Data are representative of three independent experiments, performed in triplicates. Mean is shown, error bars refer to SD (n = 3). Statistical analysis: ANOVA*p< 0.05, **p < 0.01.
Neutrophils were isolated from heparinized peripheral human blood from healthy donors after informed consent was given, using standard Lymphoprep (Axis‐shield, Dundee, Scotland) density gradient centrifugation. […]
Plates (Nunc‐ImmunoMaxiSorp™, Roskilde, Denmark) were coated with IgA, or BSA (as control) (10 μg/mL, 3 h, 37°C), washed and pre‐incubated with FcαRI‐peptides (1 μg/mL, 20 min, 4°C). […] Attached cells were lysed and fluorescence of supernatant was measured with a fluorimeter (485 nm excitation/520 nm emission filters; Fluostar Galaxy, BMG Labtechnologies, Offenburg, Germany), as measure of binding. […]

Positions of bridges follow the written chain, without caps; N, C: chain ends. No end group written: not given here.

Take “RYQAQCRIGHYRFC (disulfide 6-14 (inferred)) [FcαRI6‐ox]”: in the assay on neutrophils [1], the “block of IgA-induced neutrophil migration (in words)” value (shortened to “block … (in words)”) is reported as “do not block”.

With “SSMCGHEALPLAFCQKT (disulfide 4-14 (inferred)) [IgA6‐ox]”, the “block … (in words)” value with neutrophils [1] is “do not block”.

“SSCVGHEALPLAFTCKT (also: sidechain bridge or staple (positions not given here)) [IgA7‐CLIPS]”: the “neutrophil migration to IgA-coated beads in ex vivo human skin” value in the assay on neutrophils [2] was “fully abrogated”.

For the substance “SSCVGHEALPLAFTCKT (disulfide 3-15 (inferred)) [IgA7‐ox]”, in the assay on neutrophils [1], the “block … (in words)” value is “do not block”.

In the case of “YQACHYRFRC (also: sidechain bridge or staple (positions not given here)) [FcαRI5‐CLIPS]”, the “block … (in words)” value in the assay with neutrophils [1] is reported as “do not block”.

As to “CEALPLAFTCKT (also: sidechain bridge or staple (positions not given here)) [IgA2‐CLIPS]”, the “block … (in words)” value in the assay with neutrophils [1] was “do not block”.

Take SSMVGHEALPLAFTQKT [IgA1‐lin]: in the assay on neutrophils [2], the “neutrophil migration to IgA-coated beads in ex vivo human skin” value is listed as “completely blocked”. The “effect on IL-8 induced chemotaxis” value in the assay on neutrophils [3] is recorded as “do not block”. The “blocking of neutrophil binding to IgA-coated wells” value in assay [4] was “approximately 50%”. For the same substance, in the assay on neutrophils [1] (neutrophils or beads pre-incubated with peptides, three independent experiments in triplicates, Fig. 3), the “block of neutrophil migration to IgA-coated beads” value is on record as 60–80%.

Turning to “SCEALPLAFTCKT (also: sidechain bridge or staple (positions not given here)) [IgA3‐CLIPS]”, the “block … (in words)” value in the assay with neutrophils [1] was “do not block”.

On to “CHYRFRC (also: sidechain bridge or staple (positions not given here)) [FcαRI3‐CLIPS]”, for which the “block … (in words)” value in the assay with neutrophils [1] is recorded as “do not block”.

“GRYQAQCRIGHYRFCYSD (disulfide 7-15 (inferred)) [FcαRI9‐ox]”: the “neutrophil migration to IgA-coated beads in ex vivo human skin” value in the assay on neutrophils [2] is recorded as “did not inhibit”. Besides, the “effect on IL-8 induced chemotaxis” value in the assay with neutrophils [3] is given as “do not block”. Further, the “block … (in words)” value with neutrophils [1] is listed as “do not block”.

These data come from article PMC5659136, “Peptide mimetics of immunoglobulin A (IgA) and FcαRI block IgA‐induced human neutrophil activation and migration” (European Journal of Immunology, 2017).
